# Source: patent US10583102B2, “Targeting liver nuclear receptors as a treatment for wilson disease” (THE JOHNS HOPKINS UNIVERSITY, priority 2014, dated 2020)
# Entries after “also recorded” stand apart in the source; their conditions may differ.
# Experiments:
# [1] = Animal and liver weights during/after T0901317 treatment in chow; type: in vivo, mice; settings: for body weight: 50 mg/kg/day thrice weekly in chow, 8 weeks
# Description: (§1) ATP7b knockout (ATP7b^−/−) and heterozygote (ATP7b^+/−) mice were generated as previously prescribed (Buiakova et al., 8(9) HUM. MOL. GENETICS 1665-71 (1999). T0901317 (Cayman Chemical, Ann Arbor, Mich.) powder was mixed with Teklad 2018 powdered chow (Harlan, Madison Wis.) and fed to animals aged 6-7 weeks old at a dose of 50 mg/kg/day, thrice weekly. After 8 weeks, animals were sacrificed. The animals were housed at the Johns Hopkins University School of Medicine (JHUSOM) Animal Care Facility and protocols designed according to National Institutes of Health (USA) guidelines. Normal pellet chow was fed to the mice on days they were not receiving the drug. Animals were weighed weekly. At the time of sacrifice, trunk blood and livers were harvested. The Institutional Animal Care and Use Committee (IACUC) of JHUSOM approved the above experimental protocols.
# [2] = test system: Atp7b−/− mice; assay: Liver histology (H&E, inflammation scoring); type: in vivo
# Description: as §1, with “protocols. Sections of mouse liver were covered in OCT and snap frozen in liquid nitrogen. Sections were then cut and stained with hematoxylin and eosin. De-identified samples were analyzed for the presence of inflammation by an expert in veterinary pathology (D.H.). Inflammation was scored as follows: none, 0; mild, 1; moderate, 2; and severe, 3. Severely inflamed livers had karyomegaly, cytomegaly, binucleate hepatocytes, intranuclear vacuoles, multiple nuclei, and inflammatory cell infiltrates.” for “protocols.”
# [3] = test system: Atp7b−/− mice; assay: Hepatic triglyceride colorimetric assay; type: in vivo
# Description: as §1, with “protocols. The triglyceride colorimetric assay kit (Cayman Chemical, Ann Arbor, Mich.) was used for measuring hepatic triglyceride content using the provided protocol. 120-160 mg of liver tissue was homogenized and samples were assayed in triplicate. Absorbance at 540 nm was detected on an Envision plate reader (Perkin-Elmer). Triglyceride concentrations were calculated using a standard curve, then normalized to the volume of homogenate and the mass of the liver tissue.” for “protocols.”
# [4] = test system: Atp7b−/− mice; assay: Hepatic oxysterol measurement by LC/MS; type: in vivo; settings: Atp7b knockout mice, data not shown
# Description: as §1, with “protocols. Oxysterols were extracted and measured using the protocol described by McDonald et al. (53(7) J. LIPID RES. 1399-1409 (2012)). […] Quantitation was performed by establishing a linear relationship between measured amounts of the analytical standards combined with the internal standard cocktail. This regression line was applied to the measured peak areas for analytes in the extracted samples to determine measured quantities present in each sample. […]” for “protocols.”
# [5] = test system: Atp7b−/− mice; assay: Serum liver biochemistries (AST, ALT, bilirubin, albumin); type: in vivo; settings: treated Atp7b−/− mice; p<0.05 vs untreated
# Description: as §1, with “protocols. Animals were fasted overnight before sacrifice. Whole blood was collected from the aorta and vena cava in amber Microtainer tubes (Becton Dickinson, Franklin Lakes, N.J.), and serum was separated after centrifugation at 5000 rpm for 10 minutes. Liver biochemistries and lipid panels were performed in the Molecular and Comparative Pathobiology Core Laboratory of JHUSOM.” for “protocols.”
# [6] = test system: Atp7b−/− mice; assay: Quantitative RT-PCR of liver mRNA, inflammatory and fibrosis genes; type: in vivo
# Description: as §1
# (§2) Sections of mouse liver were immersed in RNAlater, homogenized, and frozen at −80° C. RNA was isolated with TRIzol via the manufacturer's instructions, then transcribed into cDNA using the SuperScript III first strand synthesis system (Invitrogen). RNA quantity was determined by an ND-1000 spectrophotometer (NanoDrop, Wilmington, Del.). Samples were run in triplicate and performed on a 7900 HT machine (Applied Biosystems) and analyzed with the SDS 2.4.1 software. GAPDH served as the control to which gene of interest expression was normalized.
# (§3) Quantitative RT-PCR for ABC1, HmGCoA1, CYP71a, FASN, LXRα (NR1H3), LXRβ (NR1H2), RXRα (NR2B2), SREBP1, FXR, TIMP1, COL1a, and GAPDHwas performed with sequence-specific primers and probes using TaqMan gene expression assays (Applied Biosystems, Foster City, Calif.).
# [7] = test system: Atp7b−/− mice; assay: Serum lipid panel; type: in vivo; settings: drug treated Atp7b−/− mice vs untreated Atp7b−/−
# Description: as §1, with “protocols. Animals were fasted overnight before sacrifice. Whole blood was collected from the aorta and vena cava in amber Microtainer tubes (Becton Dickinson, Franklin Lakes, N.J.), and serum was separated after centrifugation at 5000 rpm for 10 minutes. Liver biochemistries and lipid panels were performed in the Molecular and Comparative Pathobiology Core Laboratory of JHUSOM.” for “protocols.”
# [8] = test system: Atp7b−/− mice; assay: Hepatic copper measurement by atomic absorption spectroscopy; type: in vivo; settings: drug-treated Atp7b−/− mice, end of experiment
# Description: as §1, with “protocols. Hepatic copper levels were measured by polarized atomic absorption spectroscopy as previously described. Briefly, 50-100 mg of liver was dissolved in 2 ml of HNO3 at 90° C. Copper levels were determined using a Hitachi Z-8279 spectrophotometer. Samples were compared to freshly prepared standards.” for “protocols.”
# [9] = test system: LXR/RXR signaling pathway; assay: Quantitative RT-PCR of liver mRNA, genes under control of LXR/RXR signaling pathway; type: in vivo, mice; settings: for SREBP1 mRNA / FASN mRNA expression: treated vs untreated
# Description: as §1, §2, §3
# [10] = Atp7b−/− mice, treated vs untreated
smiles,measurement,setting,value
"O=S(=O)(c1ccccc1)N(CC(F)(F)F)c1ccc(C(O)(C(F)(F)F)C(F)(F)F)cc1 [T0901317, N-(2,2,2-trifluoroethyl)-N-{4-[2,2,2-trifluoro-1-hydroxy-1-(trifluorometh-yl)ethyl]phenyl}benzene sulfonamide]","liver weight, treated vs untreated","[1]; KO (Atp7b−/−) mice, end of treatment",neither a difference
same,body weight,"[1]; drug-treated HET (Atp7b+/−) mice, p<0.05 vs untreated",26.43 ± 1.35 g
same,body weight,[1]; drug-treated KO (Atp7b−/−) mice,24.03 ± 0.91 g
same,effect on liver histology,[2]; heterozygote mice,no effect
same,treated mice in which pathologic liver histology features disappeared,"[2]; treated KO mice, light microscopy",5/7
same,hepatic triglycerides,[3]; drug treated HET mice vs untreated HET,statistically significant increase
same,hepatic triglycerides,[3]; drug treated KO mice vs untreated KO,statistically significant increase
same,changes in hepatic oxysterol levels,[4],did not reverse
same,serum ALT (mean),[5],285±115 U/L
same,serum AST (mean),[5],222±64 U/L
same,serum albumin,[5],2.93 ± 0.19 g/dL
same,serum total bilirubin,[5],0.85 ± 0.22 mg/dL
same,increase in expression of collagen (Col1a mRNA),[6]; Atp7b−/− mice,completely abolished
same,IL-1β expression,[6]; [10],significantly reduced
same,TNFα expression,[6]; [10],significantly reduced
same,iNOs expression,[6]; [10],significantly reduced
same,"expression of inflammatory genes (TNFα, IL-1β, iNOs)",[6]; heterozygote animals,no effect
same,serum low density lipoprotein (LDL),[7]; p<0.001,significantly increased; also recorded: more than doubled
same,serum total cholesterol,[7]; p<0.001,significantly increased; also recorded: more than doubled
same,serum high density lipoprotein (HDL),[7]; p<0.005,significantly increased; also recorded: more than doubled
same,hepatic copper levels,[8],did not prevent copper accumulation
same,SREBP1 mRNA,[9]; ATP7b+/− mice,increased
same,SREBP1 mRNA,[9]; ATP7b−/− mice,no change
same,FASN mRNA expression,[9]; Atp7b+/− mice,significantly increased
same,FASN mRNA expression,[9]; Atp7b−/− mice,significantly increased
same,ABC1 mRNA levels,[9]; both KO and HET mice,did not change
same,CYP7A1 mRNA levels,[9]; both KO and HET mice,did not change
same,HMGCS1 mRNA levels,[9]; both KO and HET mice,did not change
same,NR1H2 mRNA levels,[9]; both KO and HET mice,did not change
same,NR1H3 mRNA levels,[9]; both KO and HET mice,did not change
same,NR1H4 mRNA levels,[9]; both KO and HET mice,did not change
